In article PMC5769417, “Single- and Multiple-Dose Trials to Determine the Pharmacokinetics, Safety, Tolerability, and Sex Effect of Oral Ginsenoside Compound K in Healthy Chinese Volunteers” (Frontiers in Pharmacology, 2018):
Where two headings read alike, the source gives them in different places. Marks after values point to notes of the source that are not given here.

What was measured:
[1] = Phase 0 cross-over trial, sex differences in pharmacokinetics; type: in vivo, human; details: phase 0 trial; for half-life / Tmax: human, plasma, oral; for Tmax: read-out: Tmax, median (range); for Cmax/D, dose-normalized Cmax: in ng·ml⁻¹·mg⁻¹
Protocol: Cmax/D, dose-normalized Cmax value; Tmax, time to maximum plasma concentration; t1/2, terminal half-life; AUClast/D, dose-normalized AUClast value; AUCinf/D, dose-normalized AUCinf value; All values are presented as mean ± SD, except for Tmax, which is expressed as median (range). SD, standard deviation. PK parameters were compared between male and female by independent-sample t-test. A non-parametric test was performed on the Tmax and t1/2. * Compared with Male, p < 0.05. These were the results of phase 0 trial, which was a cross-over clinical trial and included 12 males and 12 females.

[2] = test system: healthy Chinese volunteers; assay: Single-dose trial, safety and tolerability (adverse events); type: in vivo, human
Protocol: Single-dose pharmacokinetics: The single-dose trial was performed first. Seven doses of CK were given orally under fasting condition: 25, 50, 100, 200, 400, 600, and 800 mg. Eligible subjects (n = 76, male:female = 1:1) were randomized into each dose level (n = 8, 8, 10, 10, 10, 8, 8, respectively) or placebo groups (n = 2 for each dose group) with equal number of men and women in each group. Subjects in each group were admitted to the clinical facility the day before drug administration and received the corresponding dose of the test drug or placebo with 250 ml warm water on the morning of the dosing day. Drinking before and after medication was prohibited for 2 h, but the amount and time of drinking were not strictly controlled at other times. All subjects had standard lunch and dinner (unified light diet) after medication 4 and 10 h.
Safety was evaluated by continuous observation of adverse events (AEs), monitoring of vital signs, ECG, hematology, biochemistry, and urinalysis at baseline, during the trials at the set time points following drug administration, and at follow-up visits after study completion. AEs were classified by their intensity into mild, moderate and severe. Additionally, the AEs were also classified according their relationship to the test drug as positive, probable, possible, remote, or unrelated. The severity of the AEs, as well as their relationship to test drug, was assessed by a qualified physician in the unit. Clinically relevant changes in vital signs, ECG and laboratory parameters were defined as marked abnormalities. ECG were recorded in the semisupine position after a rest of at least 5 min. It is worth noting that all the information, including symptoms and signs after dosing or the medications that the subjects were concomitantly taking must be recorded on the case-report form by investigators. All available data from subjects who received the test drug and placebo were included in the summaries of the safety data and were descriptively analyzed. In addition, the differences between laboratory parameters at baseline and after drug treatment were analyzed to determine whether there were clinical significances.
All the safety data, including vital signs, laboratory indexes and ECG, were descriptively analyzed, and the statistical analyses were conducted to evaluate the effects of the test drug by comparing the differences between before and after drug treatment, between the test drug group and the placebo group and among the different dose groups.

CYP2C9 = test system: CYP2C9; parameters: method as in Xiao et al., 2016; details: human liver microsomes, human recombinant CYPs; ref Xiao et al., 2016; cited from earlier work
[3] = single-dose trial, 25 mg (n = 8)
[4] = single-dose trial, 50 mg (n = 8)
[5] = single-dose trial, 100 mg (n = 10)
[6] = single-dose trial, 200 mg (n = 10)
[7] = single-dose trial, 400 mg (n = 10)
[8] = single-dose trial, 600 mg (n = 8)
[9] = single-dose trial, 800 mg (n = 8)
[10] = single-dose trial, of the 44 cases of AEs

CC(C)=CCC[C@](C)(OC1O[C@H](CO)[C@@H](O)[C@H](O)[C@H]1O)[C@H]1CC[C@]2(C)[C@@H]1[C@H](O)C[C@@H]1[C@@]3(C)CC[C@H](O)C(C)(C)[C@@H]3CC[C@]12C (stereo partly drawn) [CK, 20-O-beta-D-glucopyranosyl-20(S)-protopanaxadiol]
half-life ([1]; Female (n = 12)): 6.7 ± 1.2 h
Tmax ([1]; Female (n = 12)): 2.8 h
half-life ([1]; Male (n = 12)): 6.1 ± 1.1 h
Tmax ([1]; Male (n = 12)): 3.3 h
AUCinf/D, dose-normalized AUCinf ([1]; Female (n = 12)): 2016.33 ± 1124.90*
AUClast/D, dose-normalized AUClast ([1]; Female (n = 12)): 1984.33 ± 1809.10*
Cmax/D, dose-normalized Cmax ([1]; Female (n = 12)): 24.87 ± 8.23*
AUClast/D, dose-normalized AUClast ([1]; Male (n = 12)): 387.86 ± 174.14
Cmax/D, dose-normalized Cmax ([1]; Male (n = 12)): 16.44 ± 2.82
ECG after the drug treatments ([2]; both trials): none of the subjects had clinically significant abnormalities
intensity of all observed AEs ([2]; both trials): mild or moderate
serious AEs ([2]; both trials): no serious AEs reported
safety and tolerability ([2]; single dose 25 to 800 mg and multiple doses of 100–400 mg, both trials): safe and well-tolerated
AEs after taking the test drug ([2]; single-dose trial): 33 AEs
subjects who suffered AEs after taking the test drug ([2]; single-dose trial): 22 subjects
Alkaline phosphatase increased (study drug-related AE) [2, 3]: 0 number of subjects (%)
Any AEs (study drug-related) [2, 3]: 0 number of subjects (%)
Bellyache (study drug-related AE) [2, 3]: 0 number of subjects (%)
Blood white cells increased (study drug-related AE) [2, 3]: 0 number of subjects (%)
Diarrhea (study drug-related AE) [2, 3]: 0 number of subjects (%)
Direct bilirubin increased (study drug-related AE) [2, 3]: 0 number of subjects (%)
Dizziness (study drug-related AE) [2, 3]: 0 number of subjects (%)
Headache (study drug-related AE) [2, 3]: 0 number of subjects (%)
Loss of appetite (study drug-related AE) [2, 3]: 0 number of subjects (%)
Nausea (study drug-related AE) [2, 3]: 0 number of subjects (%)
Rash (study drug-related AE) [2, 3]: 0 number of subjects (%)
Subcutaneous bleeding (double forearm) (study drug-related AE) [2, 3]: 0 number of subjects (%)
Total bilirubin increased (study drug-related AE) [2, 3]: 0 number of subjects (%)
Alkaline phosphatase increased (study drug-related AE) [2, 4]: 0 number of subjects (%)
Any AEs (study drug-related) [2, 4]: 2 (2.6) number of subjects (%)
Bellyache (study drug-related AE) [2, 4]: 0 number of subjects (%)
Blood white cells increased (study drug-related AE) [2, 4]: 0 number of subjects (%)
Diarrhea (study drug-related AE) [2, 4]: 0 number of subjects (%)
Direct bilirubin increased (study drug-related AE) [2, 4]: 2 (2.6) number of subjects (%)
Dizziness (study drug-related AE) [2, 4]: 0 number of subjects (%)
Headache (study drug-related AE) [2, 4]: 0 number of subjects (%)
Loss of appetite (study drug-related AE) [2, 4]: 0 number of subjects (%)
Nausea (study drug-related AE) [2, 4]: 0 number of subjects (%)
Rash (study drug-related AE) [2, 4]: 0 number of subjects (%)
Subcutaneous bleeding (double forearm) (study drug-related AE) [2, 4]: 0 number of subjects (%)
Total bilirubin increased (study drug-related AE) [2, 4]: 0 number of subjects (%)
Alkaline phosphatase increased (study drug-related AE) [2, 5]: 0 number of subjects (%)
Any AEs (study drug-related) [2, 5]: 2 (2.6) number of subjects (%)
Bellyache (study drug-related AE) [2, 5]: 0 number of subjects (%)
Blood white cells increased (study drug-related AE) [2, 5]: 0 number of subjects (%)
Diarrhea (study drug-related AE) [2, 5]: 0 number of subjects (%)
Direct bilirubin increased (study drug-related AE) [2, 5]: 0 number of subjects (%)
Dizziness (study drug-related AE) [2, 5]: 1 (1.3) number of subjects (%)
Headache (study drug-related AE) [2, 5]: 1 (1.3) number of subjects (%)
Loss of appetite (study drug-related AE) [2, 5]: 0 number of subjects (%)
Nausea (study drug-related AE) [2, 5]: 0 number of subjects (%)
Rash (study drug-related AE) [2, 5]: 0 number of subjects (%)
Subcutaneous bleeding (double forearm) (study drug-related AE) [2, 5]: 0 number of subjects (%)
Total bilirubin increased (study drug-related AE) [2, 5]: 0 number of subjects (%)
Alkaline phosphatase increased (study drug-related AE) [2, 6]: 1 (1.3) number of subjects (%)
Any AEs (study drug-related) [2, 6]: 5 (6.6) number of subjects (%)
Bellyache (study drug-related AE) [2, 6]: 0 number of subjects (%)
Blood white cells increased (study drug-related AE) [2, 6]: 0 number of subjects (%)
Diarrhea (study drug-related AE) [2, 6]: 2 (2.6) number of subjects (%)
Direct bilirubin increased (study drug-related AE) [2, 6]: 2 (2.6) number of subjects (%)
Dizziness (study drug-related AE) [2, 6]: 0 number of subjects (%)
Headache (study drug-related AE) [2, 6]: 0 number of subjects (%)
Loss of appetite (study drug-related AE) [2, 6]: 0 number of subjects (%)
Nausea (study drug-related AE) [2, 6]: 0 number of subjects (%)
Rash (study drug-related AE) [2, 6]: 0 number of subjects (%)
Subcutaneous bleeding (double forearm) (study drug-related AE) [2, 6]: 0 number of subjects (%)
Total bilirubin increased (study drug-related AE) [2, 6]: 1 (1.3) number of subjects (%)
Alkaline phosphatase increased (study drug-related AE) [2, 7]: 0 number of subjects (%)
Any AEs (study drug-related) [2, 7]: 5 (6.6) number of subjects (%)
Bellyache (study drug-related AE) [2, 7]: 1 (1.3) number of subjects (%)
Blood white cells increased (study drug-related AE) [2, 7]: 1 (1.3) number of subjects (%)
Diarrhea (study drug-related AE) [2, 7]: 2 (2.6) number of subjects (%)
Direct bilirubin increased (study drug-related AE) [2, 7]: 1 (1.3) number of subjects (%)
Dizziness (study drug-related AE) [2, 7]: 0 number of subjects (%)
Headache (study drug-related AE) [2, 7]: 1 (1.3) number of subjects (%)
Loss of appetite (study drug-related AE) [2, 7]: 0 number of subjects (%)
Nausea (study drug-related AE) [2, 7]: 0 number of subjects (%)
Rash (study drug-related AE) [2, 7]: 0 number of subjects (%)
Subcutaneous bleeding (double forearm) (study drug-related AE) [2, 7]: 0 number of subjects (%)
Total bilirubin increased (study drug-related AE) [2, 7]: 0 number of subjects (%)
Alkaline phosphatase increased (study drug-related AE) [2, 8]: 0 number of subjects (%)
Any AEs (study drug-related) [2, 8]: 1 (1.3) number of subjects (%)
Bellyache (study drug-related AE) [2, 8]: 0 number of subjects (%)
Blood white cells increased (study drug-related AE) [2, 8]: 0 number of subjects (%)
Diarrhea (study drug-related AE) [2, 8]: 0 number of subjects (%)
Direct bilirubin increased (study drug-related AE) [2, 8]: 1 (1.3) number of subjects (%)
Dizziness (study drug-related AE) [2, 8]: 0 number of subjects (%)
Headache (study drug-related AE) [2, 8]: 0 number of subjects (%)
Loss of appetite (study drug-related AE) [2, 8]: 0 number of subjects (%)
Nausea (study drug-related AE) [2, 8]: 0 number of subjects (%)
Rash (study drug-related AE) [2, 8]: 0 number of subjects (%)
Subcutaneous bleeding (double forearm) (study drug-related AE) [2, 8]: 0 number of subjects (%)
Total bilirubin increased (study drug-related AE) [2, 8]: 0 number of subjects (%)
Alkaline phosphatase increased (study drug-related AE) [2, 9]: 0 number of subjects (%)
Any AEs (study drug-related) [2, 9]: 3 (3.9) number of subjects (%)
Bellyache (study drug-related AE) [2, 9]: 1 (1.3) number of subjects (%)
Blood white cells increased (study drug-related AE) [2, 9]: 0 number of subjects (%)
Diarrhea (study drug-related AE) [2, 9]: 1 (1.3) number of subjects (%)
Direct bilirubin increased (study drug-related AE) [2, 9]: 0 number of subjects (%)
Dizziness (study drug-related AE) [2, 9]: 0 number of subjects (%)
Headache (study drug-related AE) [2, 9]: 0 number of subjects (%)
Loss of appetite (study drug-related AE) [2, 9]: 0 number of subjects (%)
Nausea (study drug-related AE) [2, 9]: 0 number of subjects (%)
Rash (study drug-related AE) [2, 9]: 1 (1.3) number of subjects (%)
Subcutaneous bleeding (double forearm) (study drug-related AE) [2, 9]: 0 number of subjects (%)
Total bilirubin increased (study drug-related AE) [2, 9]: 0 number of subjects (%)
AEs possibly related to CK [2, 10]: 7 cases
AEs probably related to the test drug [2, 10]: 13 cases
inhibition of CYP2C9 (CYP2C9): moderate inhibitor
substrate of CYP2C9 (CYP2C9): substrate
